Reference: US20080299076A1, “Compunds and compositions that cause non-apoptotic cell death and uses thereof” (priority 2006, published 2008)
Values after ≈ are worked out from the molar mass of the structure shown.

Legend:
[1] = test system: BJ-TERT/LT/ST/RAS^V12 cells; assay: Mitochondrial membrane potential (JC-1 stain); format: cell-based, human; details: after 13 hours of treatment
Experimental: In certain embodiments, there is loss of mitochondrial membrane potential in >70% of BJ-TERT/LT/ST/RAS^V12 cells after 13 hours of erastin A1 treatment (JC-1 stain), and morphological changes in mitochondria examined by EM, consistent with the notion that erastin induces mitochondrial dysfunction.

[2] = Stability in mouse plasma; format: in vitro ADME; details: after five hours
Experimental: (§1) The stability of erastin in mouse and human liver microsomes and in mouse and human plasma was assessed. In both human and mouse liver microsomes, after 1 hr, ˜30% of erastin was converted to its primary metabolite (the O-de-ethylated product). In both human and mouse plasma, only ˜10% of erastin was lost after five hours. Thus, erastin has sufficient metabolic and plasma stability to be tested in vivo in mice.

cytochrome c = assay: Cytochrome c release from mitochondria; format: cell-based, human; details: BJ-TERT/LT/ST/RAS^V12 cells; staurosporine 1 μM or erastin 20 μg/mL, 6 h
Experimental: BJ-TERT/LT/ST/RAS^V12 cells were seeded in polystyrene 100×20 mm dishes in 10 ml media. After overnight incubation at 37° C. with 5% CO2, the cells were treated with nothing (NT), staurosporine (ST, 1 μM) or erastin (20 μg/mL) for 6 h, washed with 10 mL ice-cold PBS and lysed by passage through a 25-gauge needle (five strokes). Cell lysates were centrifuged at 1850 rpm for 5 min at 4° C. to remove the nuclear fraction. Mitochondria were removed from the soluble cytosolic fraction by pelleting at 10,000 rpm. Supernatant and mitochondrial pellets were solubilized in SDS-PAGE loading buffer and analyzed by western blot using anti-cytochrome c and pan-VDAC antibodies and IR-dye-linked secondary antibodies. VDACs are mitochondrial proteins, so their absence in the cytosolic lane indicates effective separation of cytosol (C) from mitochondria (M). Fluorescence was detected on a LI-COR Odyssey infrared scanner.
For the cytochrome c release assay, cells were washed with 10 mL of ice-cold PBS, suspended in 120 μL of buffer (300 mM sucrose, 0.1% BSA, 10 mM HEPES, pH 7.5, 10 mM KCl, 1.5 mM MgCl2, 1 mM EGTA, 1 mM EDTA, 1 mM dithiothreitol, 2 mM phenylmethanesulfonyl fluoride and 1 protease inhibitor tablet (Roche)) and incubated on ice for 15 min. […] Supernatant and mitochondrial pellets were solubilized in SDS-PAGE loading buffer and analyzed by western blotting.

A549 cells = assay: Alamar Blue viability assay; format: cell-based; details: Homo sapiens; A549 (+KRAS)
Experimental: (§2) Alamar Blue metabolism: 10% Alamar Blue was added to assay plates, which were then incubated for an additional 16 hours. Red fluorescence, resulting from reduction of Alamar Blue, was detected on a Victor3 platereader (ex: 530, em: 590).
(§3) Table 2. Activity of RAS-selective lethal compound erastin in tumor cell lines. IC50 values (ng/mL) are shown using the Alamar Blue viability assay. BJ engineered tumor cells express TERT, LT, ST, and oncogenic RAS. Isogenic RAS^V12 lacking cells are identical but lack HRAS^V12. BJ-DRD cells are derived from BJ cells and contain TERT, oncogenic RAS, a truncated from of p53 (p53DD) that disrupts the tetramerization of endogenous p53, a CDK4(R24C) mutant resistant to inhibition by p16INK4A and p151NK4B (the major negative regulators of CDK4) and cyclin D1. These latter protein substitute for LT. HCT-116, A549, Calu-1, and MIA PaCa-2 are tumor cells derived from cancers (colon, lung, lung and pancreatic, respectively) known to have activating mutations in RAS.

BJ-TERT/LT/ST cells = assay: Alamar Blue viability assay; format: cell-based; details: Homo sapiens; BJ-TERT/LT/ST (lacking HRAS^V12)
Experimental: as §2, §3

MIA PaCa-2 cells = assay: Alamar Blue viability assay; format: cell-based; details: Homo sapiens; MIA PaCa-2 (+KRAS)
Experimental: as §2, §3

Calu-1 cells = assay: Alamar Blue viability assay; format: cell-based; details: Homo sapiens; Calu-1 (+KRAS)
Experimental: as §2, §3

HCT-116 cells = assay: Alamar Blue viability assay; format: cell-based; details: Homo sapiens; HCT-116 (+KRAS)
Experimental: as §2, §3

[3] = Stability in human plasma; format: in vitro ADME; details: after five hours
Experimental: as §1

murine VDAC3 = biological target: T1, murine VDAC3 (Mus musculus, UniProt Q60931); assay: NADH oxidation assay in mitochondria from yeast expressing VDAC3; format: biochemical; details: mitochondria from yeast expressing VDAC3 in place of yeast VDAC
T1 construct: expressed in transfected cells; host or cells: yeast (S. cerevisiae) with murine VDAC3 in place of yeast VDAC; isolated mitochondria
T1 sequence (Q60931 1-283): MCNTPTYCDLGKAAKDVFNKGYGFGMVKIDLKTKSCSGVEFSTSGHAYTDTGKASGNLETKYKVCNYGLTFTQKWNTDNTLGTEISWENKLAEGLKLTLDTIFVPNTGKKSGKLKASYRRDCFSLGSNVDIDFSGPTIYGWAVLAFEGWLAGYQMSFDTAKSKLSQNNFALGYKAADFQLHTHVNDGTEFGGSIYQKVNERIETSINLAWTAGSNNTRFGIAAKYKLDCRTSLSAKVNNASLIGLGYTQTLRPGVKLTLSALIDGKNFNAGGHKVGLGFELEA
Experimental: In certain embodiments, mitochondria can be purified from yeast that had been engineered to express murine or human VDAC3 in place of yeast VDAC.
Mitochondria were isolated from yeast expressing murine VDAC3 in place of yeast VDAC. The rate of NADH oxidation by an inner membrane NADH dehydrogenase was determined by measuring the change in NADH absorbance over time. Mitochondria with a disrupted outer membrane show an increased rate of NADH oxidation (red, shocked) compared to untreated mitochondria (green).
NADH oxidation in the mitochondria was measured by resuspending mitochondria isolated from yeast in R-buffer (0.65 M sucrose, 10 mM HEPES (pH 7.5), 10 mM KH2PO4, 5 mM KCl, 5 mM, MgCl2) to a final concentration of 100 μg/ml. Mitochondrial concentration was measured by dissolving mitochondria in 0.6% SDS and reading absorbance at 280 nm. The mitochondrial suspension was then incubated with 25 μM NADH, and the absorbance at 340 nm monitored over a 15 minute period. The assay was repeated in the presence of erastin. To assess mitochondrial intactness, a parallel assay was run in which mitochondria were hypotonically shocked prior to addition of NADH. The mitochondrial pellet was resuspended in dH2O and incubated on ice for 3 minutes to disrupt the outer mitochondrial membrane. 2× R-buffer was then added to restore normal osmotic conditions.

Compound: CCOc1ccccc1-n1c(C(C)N2CCN(C(=O)COc3ccc(Cl)cc3)CC2)nc2ccccc2c1=O (centres unmarked) [erastin, 2-(1-{4-[2-(4-Chloro-phenoxy)-acetyl]-piperazin-1-yl}-ethyl)-3-(2-ethoxy-phenyl)-3H-quinazolin-4-one]
- cells with loss of mitochondrial membrane potential [1]: > 70%
- compound lost [2]: ~10%
- Cytochrome c release from mitochondria (cytochrome c): does not induce cytochrome c release
- IC50 (A549 cells): > 20 µg/mL
- IC50 (BJ-TERT/LT/ST cells): > 20 µg/mL
- IC50 (MIA PaCa-2 cells): 5 µg/mL (≈ 9.14 µM)
- IC50 (Calu-1 cells): 1 µg/mL (≈ 1.83 µM)
- IC50 (HCT-116 cells): > 20 µg/mL
- compound lost [3]: ~10%
- Rate of NADH oxidation / permeability of outer mitochondrial membrane to NADH (murine VDAC3): increases the permeability
- Rate of NADH oxidation / permeability of outer mitochondrial membrane to NADH (murine VDAC3; listed as Erastin): increased the rate of NADH oxidation
